According to ChEMBL document CHEMBL3046007, “Isonicotinic acid hydrazide derivatives: synthesis, antimicrobial activity, and QSAR studies” (Med Chem Res, 2012):
Values after ≈ are worked out from the molar mass of the structure shown.

How the values were obtained:
[1] = test system: Aspergillus niger; assay: Antimicrobial activity against Aspergillus niger after 7 days by serial dilution method; type: functional
[2] = test system: Candida albicans; assay: Antimicrobial activity against Candida albicans after 48 hr by serial dilution method; type: functional
[3] = test system: Escherichia coli; assay: Antimicrobial activity against Escherichia coli after 24 hr by serial dilution method; type: functional
[4] = test system: Staphylococcus aureus; assay: Antimicrobial activity against Staphylococcus aureus after 24 hr by serial dilution method; type: functional
[5] = test system: Bacillus subtilis; assay: Antimicrobial activity against Bacillus subtilis after 24 hr by serial dilution method; type: functional
[6] = Cytotoxicity against Chlorocebus aethiops (African green monkey) Vero cells assessed as alteration in cell morphology; type: cell-based; settings: chlorocebus sabaeus
[7] = test system: Punta Toro virus; assay: Antiviral activity against Punta Toro virus infected Vero cells assessed as inhibition of virus-induced cytopathicity; type: functional, organism-based
[8] = test system: Coxsackievirus B4; assay: Antiviral activity against Human coxsackievirus B4 infected Vero cells assessed as inhibition of virus-induced cytopathicity; type: functional, organism-based; settings: Enterovirus B
[9] = test system: Sindbis virus; assay: Antiviral activity against Sindbis virus infected Vero cells assessed as inhibition of virus-induced cytopathicity; type: functional, organism-based
[10] = test system: Mammalian orthoreovirus 1; assay: Antiviral activity against Mammalian orthoreovirus 1 infected Vero cells assessed as inhibition of virus-induced cytopathicity; type: functional, organism-based; settings: Mammalian orthoreovirus 1, Vero
[11] = test system: Human respirovirus 3; assay: Antiviral activity against Human parainfluenza virus 3 infected Vero cells assessed as inhibition of virus-induced cytopathicity; type: functional, organism-based; settings: Human respirovirus 3, Vero
[12] = test system: Respiratory syncytial virus; assay: Antiviral activity against Respiratory syncytial virus infected human HeLa cells assessed as inhibition of virus-induced cytopathicity; type: functional, organism-based
[13] = test system: Coxsackievirus B4; assay: Antiviral activity against Human coxsackievirus B4 infected human HeLa cells assessed as inhibition of virus-induced cytopathicity; type: functional, organism-based; settings: Enterovirus B
[14] = test system: Vesicular stomatitis virus; assay: Antiviral activity against Vesicular stomatitis virus infected human HeLa cells assessed as inhibition of virus-induced cytopathicity; type: functional, organism-based
[15] = Cytotoxicity against Homo sapiens (human) HeLa cells; type: cell-based
[16] = Cytotoxicity against Homo sapiens (human) HEL cells; type: cell-based
[17] = test system: Human alphaherpesvirus 1; assay: Antiviral activity against TK(-) aciclovir-resistant Human herpesvirus 1 strain KOS infected in human HEL cells assessed as inhibition of virus-induced cytopathicity; type: functional, organism-based; settings: Human alphaherpesvirus 1, KOS
[18] = test system: Vaccinia virus; assay: Antiviral activity against Vaccinia virus infected human HEL cells assessed as inhibition of virus-induced cytopathicity; type: functional, organism-based; settings: Orthopoxvirus vaccinia
[19] = test system: Human alphaherpesvirus 2; assay: Antiviral activity against Human herpesvirus 2 strain G infected human HEL cells assessed as inhibition of virus-induced cytopathicity; type: functional, organism-based; settings: Human alphaherpesvirus 2, strain G
[20] = test system: Human alphaherpesvirus 1; assay: Antiviral activity against Human herpesvirus 1 strain KOS infected in human HEL cells assessed as inhibition of virus-induced cytopathicity; type: functional, organism-based; settings: Human alphaherpesvirus 1, KOS
[21] = Cytotoxicity against Homo sapiens (human) MT4 cells; type: cell-based
[22] = test system: Human immunodeficiency virus 2; assay: Antiviral activity against Human immunodeficiency virus type 2 (ISOLATE ROD) infected human MT4 cells assessed as inhibition of virus-induced cytopathicity; type: functional, organism-based; settings: Human immunodeficiency virus 2, ISOLATE ROD
[23] = test system: Human immunodeficiency virus 1; assay: Antiviral activity against Human immunodeficiency virus 1 IIIB infected human MT4 cells assessed as inhibition of virus-induced cytopathicity; type: functional, organism-based

SMILES	-logMIC [1]	-logMIC [2]	-logMIC [3]	-logMIC [4]	-logMIC [5]	MCC [6]	EC50 [7]	EC50 [8]	EC50 [9]	EC50 [10]	EC50 [11]	EC50 [12]	EC50 [13]	EC50 [14]	MCC [15]	MCC [16]	EC50 [17]	EC50 [18]	EC50 [19]	EC50 [20]	other results
C/C=C/C=N/NC(=O)c1ccncc1	2.18	2.48	1.88	1.88	1.88	100 µg/mL	> 20 µg/mL	> 20 µg/mL	> 20 µg/mL	> 20 µg/mL	> 20 µg/mL	> 20 µg/mL	> 20 µg/mL	> 20 µg/mL	100 µg/mL	100 µg/mL	> 20 µg/mL	> 20 µg/mL	> 20 µg/mL	> 20 µg/mL	CC50 [21]: 11 µg/mL (≈ 58.1 µM); EC50 [22]: > 11 µg/mL; EC50 [23]: > 11 µg/mL
Cc1ccc(/C=N/NC(=O)c2ccncc2)cc1 [N'-(4-METHYLBENZYLIDENE)ISONICOTINOHYDRAZIDE]	2.28	2.28	1.98	1.98	1.98	≥ 20 µg/mL	> 20 µg/mL	> 20 µg/mL	> 20 µg/mL	> 20 µg/mL	> 20 µg/mL	> 20 µg/mL	9 µg/mL (≈ 37.6 µM)	> 20 µg/mL	100 µg/mL	> 100 µg/mL	> 100 µg/mL	> 100 µg/mL	> 100 µg/mL	> 100 µg/mL	CC50 [21]: 25 µg/mL (≈ 104 µM); EC50 [22]: > 25 µg/mL; EC50 [23]: > 25 µg/mL
CCOc1cc(/C=N/N(C(=O)c2ccccc2)C(=O)c2ccncc2)ccc1O	2.19	2.79	2.49	2.19	2.19	> 100 µg/mL	> 100 µg/mL	> 100 µg/mL	> 100 µg/mL	> 100 µg/mL	> 100 µg/mL	> 100 µg/mL	> 100 µg/mL	> 100 µg/mL	> 100 µg/mL	> 100 µg/mL	> 100 µg/mL	> 100 µg/mL	> 100 µg/mL	> 100 µg/mL	CC50 [21]: ≥ 92 µg/mL; EC50 [22]: > 92 µg/mL; EC50 [23]: > 92 µg/mL
CSc1ccc(/C=N/NC(=O)c2ccncc2)cc1	2.34	2.34	2.34	2.04	2.04	≥ 100 µg/mL	> 100 µg/mL	9 µg/mL (≈ 33.2 µM)	> 100 µg/mL	> 100 µg/mL	> 100 µg/mL	> 20 µg/mL	> 20 µg/mL	> 20 µg/mL	100 µg/mL	> 100 µg/mL	> 100 µg/mL	> 100 µg/mL	> 100 µg/mL	> 100 µg/mL	CC50 [21]: 59 µg/mL (≈ 217 µM); EC50 [22]: > 59 µg/mL; EC50 [23]: > 59 µg/mL
Cc1ccc(/C=N/N(C(=O)c2ccccc2)C(=O)c2ccncc2)cc1	2.44	2.74	2.44	2.44	2.14	≥ 20 µg/mL	> 20 µg/mL	> 20 µg/mL	> 20 µg/mL	> 20 µg/mL	> 20 µg/mL	> 20 µg/mL	> 20 µg/mL	> 20 µg/mL	100 µg/mL	> 100 µg/mL	> 100 µg/mL	> 100 µg/mL	> 100 µg/mL	> 100 µg/mL	CC50 [21]: 42 µg/mL (≈ 122 µM); EC50 [22]: > 42 µg/mL; EC50 [23]: > 42 µg/mL
